Assay results from PubChem BioAssay (NCI).
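Five compound concentrations were applied to cells in 96-well plates for 48 hours; endpoints were derived by simple linear interpolation of the resulting dose-response curve. The concentration for full growth arrest is given as TGI.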

Columns and labels:
Assay in all cases: DTP human tumour cell line panel, 48 h
[1] = system: MDA-N
[2] = system: KM12 colon
[3] = system: T-47D breast
[4] = system: PC-3 prostate
[5] = system: SK-MEL-2 melanoma
[6] = system: EKVX NSCLC
[7] = system: NCI-H226 lung
[8] = system: OVCAR-4 ovarian
[9] = system: ACHN renal
[10] = system: K-562 leukemia
[11] = system: TK-10 renal
[12] = system: RXF 393 renal
[13] = system: DU-145 prostate
[14] = system: NCI-H522 lung
[15] = system: SW-620 colon
[16] = system: HS 578T breast
[17] = system: OVCAR-3 ovarian
[18] = system: RPMI-8226 leukemia
[19] = system: HCT-116 colon
[20] = system: OVCAR-8 ovarian
[21] = system: MCF7 breast
[22] = system: MDA-MB-231 breast
[23] = system: IGROV1 ovarian
[24] = system: LOX IMVI melanoma
[25] = system: CCRF-CEM leukemia
[26] = system: UACC-62 melanoma
[27] = system: SK-OV-3 ovarian
[28] = system: HOP-62 NSCLC
[29] = system: 786-0 renal
[30] = system: SK-MEL-5 melanoma
[31] = system: SN12C renal
[32] = system: NCI/ADR-RES ovarian
[33] = system: SNB-19 CNS
[34] = system: OVCAR-5 ovarian
[35] = system: MALME-3M melanoma
[36] = system: UACC-257 melanoma
[37] = system: SK-MEL-28 melanoma
[38] = system: HCC-2998 colon
[39] = system: COLO 205 colon
[40] = system: HT29 colon
[41] = system: HCT-15 colon
[42] = system: CAKI-1 renal
[43] = system: SF-295 CNS
[44] = system: SF-268 CNS
[45] = system: MDA-MB-435
[46] = system: SNB-75 CNS
[47] = system: U251 CNS
[48] = system: A549 NSCLC
[49] = system: NCI-H23 lung
[50] = system: M14 melanoma
[51] = system: NCI-H460 lung
[52] = system: A498 renal
[53] = system: HL-60(TB) leukemia
[54] = system: MOLT-4 leukemia
[55] = system: SF-539 CNS
[56] = system: UO-31 renal
[57] = system: SR leukemia
[58] = system: HOP-92 NSCLC

Measured: TGI

Nc1nc(N)c2nc(CNc3ccc(C(=O)NC(CCC(=O)O)C(=O)O)cc3F)cnc2n1 (centres undefined)
67.2 µM: [18]
> 76.7 µM: [10]
not listed: [52] | [53] | [54] | [55] | [56] | [57] | [58]
> 100 µM: all other assays above

Oc1ccc[n+](Cc2ccccc2)c1
not listed: [6] | [8] | [15] | [23] | [57] | [58]
> 100 µM: all other assays above

Cc1nc2ccc(Cl)cc2c(Cl)c1CCCl
40.9 µM: [1]
99.2 µM: [21]
94.2 µM: [58]
31.2 µM: [45]
not listed: [3] | [8]
> 100 µM: all other assays above
